What is called IC50 is the concentration that gives 50% inhibition. High values mean a need for much substance, low ones inhibition by little substance.

For one experiment, the target named is CaMKK2 (Homo sapiens, UniProt Q96RR4). Nature of the experiment: CaMKK2 binding assay (LanthaScreen TR-FRET).
Sequence of CaMKK2 (Q96RR4 whole entry): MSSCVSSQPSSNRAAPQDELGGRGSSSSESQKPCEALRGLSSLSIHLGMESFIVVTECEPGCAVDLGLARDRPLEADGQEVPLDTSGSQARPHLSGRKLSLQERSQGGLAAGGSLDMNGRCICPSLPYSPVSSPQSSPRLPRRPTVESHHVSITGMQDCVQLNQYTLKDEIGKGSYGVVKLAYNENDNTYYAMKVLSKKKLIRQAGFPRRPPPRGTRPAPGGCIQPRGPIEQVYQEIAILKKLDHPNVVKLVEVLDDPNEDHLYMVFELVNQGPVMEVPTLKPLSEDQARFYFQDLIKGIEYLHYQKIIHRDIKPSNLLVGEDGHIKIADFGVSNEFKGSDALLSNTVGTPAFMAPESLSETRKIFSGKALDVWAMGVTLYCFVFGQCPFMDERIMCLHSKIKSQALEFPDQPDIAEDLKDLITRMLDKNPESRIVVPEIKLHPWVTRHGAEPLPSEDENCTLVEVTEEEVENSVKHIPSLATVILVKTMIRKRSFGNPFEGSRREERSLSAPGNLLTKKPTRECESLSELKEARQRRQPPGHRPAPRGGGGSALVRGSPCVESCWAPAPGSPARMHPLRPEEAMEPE
Details: not given
As for the experimental part: The ability of test compounds to bind and inhibit the activity of CaMKK2 were determined using a binding assay using LanthaScreent (Thermofisher) detection reagents in a 384-well plate format using the following assay buffer: 50 mM HEPES (pH7.5), 10 mM MgCl2, 1 mM EGTA, and 0.01% Brij-35.
A 10-point serial dilution of inhibitor compound in 0.5% DMSO was added to each well of the plate. The final assay volume in well was 15 uL. […] A ratio was calculated from the 2 readouts and fitted to a 4-parameter fit to determine the binding IC50.
In turn, `O=C(O)c1ccc(-c2ccnn3cc(-c4ccccc4F)cc23)cc1C1CCCC1` [Example 4.3, 2-Cyclopentyl-4-[6-(2-fluorophenyl)pyrrolo[1,2-b]pyridazin-4-yl]benzoic Acid] registered an IC50 of under 100 nM. For `Cc1cc(F)cc(-n2cc3ncc(F)c(-c4ccc(C(=O)O)c(C5CCCC5)c4)c3n2)c1` [Example 3.11, 2-Cyclopentyl-4-(6-fluoro-2-(3-fluoro-5-methylphenyl)-2H-pyrazolo[4,3-b]pyridin-7-yl)benzoic Acid], the IC50 was under 100 nM.

Compound `O=C(O)c1ccc(-c2ccnc3cc(C4CC4)nn23)cc1C1CCCC1` [Example 2.1, 2-Cyclopentyl-4-(2-cyclopropylpyrazolo[1,5-a]pyrimidin-7-yl)benzoic Acid] came in with an IC50 of under 100 nM. Still for that read-out and setting: as for `COc1ccc(-c2cc3nccc(-c4ccc(C(=O)O)c(C5CCCC5)c4)n3n2)cc1` [Example 2.8, 2-Cyclopentyl-4-(2-(4-methoxyphenyl)pyrazolo[1,5-a]pyrimidin-7-yl)benzoic Acid], the figure is under 100 nM. With `O=C(O)c1ccc(-n2ccc3ncc(-c4ccc(F)cc4)nc32)cc1NCC1CC1` [Example 11, 2-((Cyclopropylmethyl)amino)-4-(3-(4-fluorophenyl)-5H-pyrrolo[2,3-b]pyrazin-5-yl)benzoic Acid], the IC50 is under 100 nM. On the same count and under the same terms, to `O=C(O)c1ccc(-c2c(F)cnc3cn(-c4cc(F)cc(C(F)(F)F)c4)nc23)cc1C1CCCC1` [Example 3.14, 2-Cyclopentyl-4-(6-fluoro-2-(3-fluoro-5-(trifluoromethyl)phenyl)-2H-pyrazolo[4,3-b]pyridin-7-yl)benzoic Acid] belongs under 100 nM; to `Cc1cc(C)cc(-c2cnc3ccn(-c4ccc(C(=O)O)c(C5CCNCC5)c4)c3n2)c1` [Example 29, 4-(3-(3,5-dimethylphenyl)-5H-pyrrolo[2,3-b]pyrazin-5-yl)-2-(piperidin-4-yl)benzoic Acid], under 100 nM; to `Cc1cccc(-c2cc3c(-c4ccc(C(=O)O)c(C5CCCC5)c4)ccnn3c2)c1` [Example 4.2, 2-Cyclopentyl-4-[6-(m-tolyl)pyrrolo[1,2-b]pyridazin-4-yl]benzoic Acid], under 100 nM. The same measure, in the same setting: as for `COc1cc(-c2ccnc3cc(-c4ccc(F)cc4)nn23)ccc1C(=O)N[C@H](CO)c1ccccc1` [Example 2.13, (S)-4-(2-(4-Fluorophenyl)pyrazolo[1,5-a]pyrimidin-7-yl)-N-(2-hydroxy-1-phenylethyl)-2-methoxybenzamide], the figure is under 100 nM. The same measure, in the same setting: as for `Cn1ncc2cc(-c3cnc4ccn(-c5ccc(C(=O)O)c(NCC6CC6)c5)c4n3)c(F)cc21` [Example 8, 2-((Cyclopropylmethyl)amino)-4-(3-(6-fluoro-1-methyl-1H-indazol-5-yl)-5H-pyrrolo[2,3-b]pyrazin-5-yl)benzoic Acid], the figure is under 100 nM.

Take `CCNc1cc(-n2ccc3ncc(-c4ccc5c(cnn5C)c4)nc32)ccc1C(=O)O` [Example 14, 2-(Ethylamino)-4-(3-(1-methyl-1H-indazol-5-yl)-5H-pyrrolo[2,3-b]pyrazin-5-yl)benzoic Acid]: the half-maximal inhibitory concentration (IC50) is under 100 nM. Still for that read-out and setting: to `COc1cc2nccc(-c3ccc(C(=O)O)c(C4CCCC4)c3)n2n1` [Example 2.3, 2-Cyclopentyl-4-(2-methoxypyrazolo[1,5-a]pyrimidin-7-yl)benzoic Acid] belongs under 100 nM.

In the case of `COc1cc(-c2ccnc3cn(-c4ccc(F)cc4)nc23)ccc1C(=O)N[C@H](CO)c1ccccc1` [Example 3.19, (S)-4-(2-(4-fluorophenyl)-2H-pyrazolo[4,3-b]pyridin-7-yl)-N-(2-hydroxy-1-phenylethyl)-2-methoxybenzamide], the IC50 is under 100 nM. The same measure, in the same setting: as for `O=C(O)c1ccc(-n2ccc3ncc(-c4ccc(F)cc4F)nc32)cc1NC1CC1` [Example 10, 2-(Cyclopropylamino)-4-(3-(2,4-difluorophenyl)-5H-pyrrolo[2,3-b]pyrazin-5-yl)benzoic Acid], the figure is under 100 nM; as for `Cc1cc(C)cc(-c2cnc3ccn(-c4ccc(C(=O)O)c(NC5CCNCC5)c4)c3n2)c1` [Example 34, 4-(3-(3,5-dimethylphenyl)-5H-pyrrolo[2,3-b]pyrazin-5-yl)-2-(piperidin-4-ylamino)benzoic Acid], under 100 nM; as for `Cc1cc(C)cc(-c2cnc3ccn(-c4ccc(C(=O)O)c(C5CCNC5)c4)c3n2)c1` (single isomer, unassigned) [Example 26], under 100 nM. Still for that read-out and setting: as for `N#CNC(=O)c1ccc(-c2ccnc3cn(-c4ccc(F)cc4)nc23)cc1C1CCCC1` [Example 3.20, N-Cyano-2-cyclopentyl-4-(2-(4-fluorophenyl)-2H-pyrazolo[4,3-b]pyridin-7-yl)benzamide], the figure is under 100 nM; as for `Cc1cc(C)cc(-c2cnc3ccn(-c4ccc(C(=O)O)c(O[C@@H]5CCNC5)c4)c3n2)c1` [Example 35, (R)-4-(3-(3,5-dimethylphenyl)-5H-pyrrolo[2,3-b]pyrazin-5-yl)-2-(pyrrolidin-3-yloxy)benzoic Acid], 100 to 1000 nM; as for `Cc1cc(C)cc(-c2cnc3ccn(-c4ccc(C(=O)O)c(C5CCCNC5)c4)c3n2)c1` (single isomer, unassigned) [Example 28], under 100 nM. Same read-out and setting: as for `Cc1cc(C)cc(-c2cnc3ccn(-c4ccc(C(=O)O)c(N[C@@H]5CCCNC5)c4)c3n2)c1` [Example 33, (R)-4-(3-(3,5-dimethylphenyl)-5H-pyrrolo[2,3-b]pyrazin-5-yl)-2-(piperidin-3-ylamino)benzoic Acid], the figure is under 100 nM; as for `N#Cc1ccc(-n2ccc3ncc(-c4ccccc4)nc32)cc1C1CCCC1` [Example 22, 2-Cyclopentyl-4-(3-phenyl-5H-pyrrolo[2,3-b]pyrazin-5-yl)benzonitrile], 1000 to 10000 nM; as for `O=C(O)c1ccc(-c2c(F)cnc3cn(-c4cc(F)cc(Cl)c4)nc23)cc1C1CCCC1` [Example 3.10, 4-(2-(3-Chloro-5-fluorophenyl)-6-fluoro-2H-pyrazolo[4,3-b]pyridin-7-yl)-2-cyclopentylbenzoic Acid], under 100 nM.

For `CCOc1cc2nccc(-c3ccc(C(=O)O)c(C4CCCC4)c3)n2n1` [Example 2.4, 2-Cyclopentyl-4-(2-ethoxypyrazolo[1,5-a]pyrimidin-7-yl)benzoic Acid], the IC50 is under 100 nM. As to `Cn1cc(-c2cc3nccc(-c4ccc(C(=O)O)c(C5CCCC5)c4)n3n2)cn1` [Example 2.12, 2-Cyclopentyl-4-(2-(1-methyl-H-pyrazol-4-yl)pyrazolo[1,5-a]pyrimidin-7-yl)benzoic Acid], the IC50 was under 100 nM. The same measure, in the same setting: as for `Cc1cc(C)cc(-c2cnc3ccn(-c4ccc(C(=O)O)c(N[C@H]5CCNC5)c4)c3n2)c1` [Example 32, (S)-4-(3-(3,5-dimethylphenyl)-5H-pyrrolo[2,3-b]pyrazin-5-yl)-2-(pyrrolidin-3-ylamino)benzoic Acid], the figure is under 100 nM; as for `Cc1cc(-n2cc3ncc(F)c(-c4ccc(C(=O)O)c(C5CCCC5)c4)c3n2)cc(C(F)(F)F)c1` [Example 3.8, 2-Cyclopentyl-4-(6-fluoro-2-(3-methyl-5-(trifluoromethyl)phenyl)-2H-pyrazolo[4,3-b]pyridin-7-yl)benzoic Acid], under 100 nM; as for `O=C(O)c1ccc(-c2c(F)cnc3cn(-c4cc(Cl)cc(C(F)(F)F)c4)nc23)cc1C1CCCC1` [Example 3.15, 4-(2-(3-Chloro-5-(trifluoromethyl)phenyl)-6-fluoro-2H-pyrazolo[4,3-b]pyridin-7-yl)-2-cyclopentylbenzoic], under 100 nM. `O=C(O)c1ccc(-c2c(F)cnc3cn(-c4ccc(F)cc4)nc23)cc1NC1CC1` [Example 3.21, 2-(Cyclopropylamino)-4-(6-fluoro-2-(4-fluorophenyl)-2H-pyrazolo[4,3-b]pyridin-7-yl)benzoic Acid] had an IC50 of under 100 nM. Still for that read-out and setting: as for `c1ccc(-c2cnc3ccn(-c4ccc(-c5nn[nH]n5)c(C5CCCC5)c4)c3n2)cc1` [Example 23, 5-(3-Cyclopentyl-4-(2H-tetrazol-5-yl)phenyl)-3-phenyl-5H-pyrrolo[2,3-b]pyrazine], the figure is under 100 nM; as for `O=C(O)c1ccc(-c2ccnc3cc(-c4cccc(F)c4)nn23)cc1C1CCCC1` [Example 2.7, 2-Cyclopentyl-4-(2-(3-fluorophenyl)pyrazolo[1,5-a]pyrimidin-7-yl)benzoic Acid], under 100 nM; as for `COc1cccc(-c2cc3nccc(-c4ccc(C(=O)O)c(C5CCCC5)c4)n3n2)c1` [Example 2.9, 2-Cyclopentyl-4-(2-(3-methoxyphenyl)pyrazolo[1,5-a]pyrimidin-7-yl)benzoic Acid], under 100 nM. Consider `Cc1cc(C)cc(-c2cnc3ccn(-c4ccc(C(=O)O)c(NC5CNC5)c4)c3n2)c1` [Example 25, 2-(azetidin-3-ylamino)-4-(3-(3,5-dimethylphenyl)-5H-pyrrolo[2,3-b]pyrazin-5-yl)benzoic Acid], for which the IC50 is under 100 nM. The same measure, in the same setting: as for `O=C(O)c1ccc(-n2ccc3ncc(-c4ccc(F)cc4)nc32)cc1NC1CC1` [Example 15, 2-(Cyclopropylamino)-4-(3-(4-fluorophenyl)-5H-pyrrolo[2,3-b]pyrazin-5-yl)benzoic Acid], the figure is under 100 nM. On the same count and under the same terms, as for `Cc1cc(C)cc(-c2cnc3ccn(-c4ccc(C(=O)O)c(N[C@@H]5CCNC5)c4)c3n2)c1` [Example 31, (R)-4-(3-(3,5-dimethylphenyl)-5H-pyrrolo[2,3-b]pyrazin-5-yl)-2-(pyrrolidin-3-ylamino)benzoic Acid], the figure is under 100 nM; as for `Cn1cc2ccc(-c3cnc4ccn(-c5ccc(C(=O)O)c(NCC6CC6)c5)c4n3)cc2n1` [Example 17, 2-((Cyclopropylmethyl)amino)-4-(3-(2-methyl-2H-indazol-6-yl)-5H-pyrrolo[2,3-b]pyrazin-5-yl)benzoic Acid], under 100 nM.

Staying with this experiment, now noted: binding IC50, 1 nM CaMKK2, 5 nM Kinase tracer 236, 20 minutes.
Compound “2-((azetidin-3-ylmethyl)amino)-4-(3-(3,5-dimethylphenyl)-5H-pyrrolo[2,3-b]pyrazin-5-yl)benzoic Acid [Example 30]” registered a concentration for half-maximal inhibition (IC50) of under 100 nM.

Source of the values: patent publication US20240246969A1, “HETEROCYCLIC DERIVATIVES AS CAMKK2 INHIBITORS” (Bristol-Myers Squibb Company, priority 2021, published 2024).
